{
  "source": "patent US20250082600A1",
  "about": "“TREATING HAEMATOLOGICAL MALIGNANCIES BY MEANS OF SATRAPLATIN” (PHARMA& SCHWEIZ GMBH, priority 2022, published 2025)",
  "key": {"BCL2 expression": {"test_system": "BCL2 expression", "details": "cited from earlier work"}, "[1]": {"test_system": "MTAP deficient cell lines", "test": "Satraplatin IC50 plotted against MTAP status", "assay_type": "cell-based, human", "experimental": "(§1) Cell lines and reagents. All cell lines were cultured in appropriate media supplemented with 10-15% fetal bovine serum (Cat #FND500, ExCell Bio, China) at a temperature of 37° C., 5% CO2 and 95% humidity. Cell viability was measured using the CTG Luminescent Cell Viability Assay (Promega, Madison, WI, USA) by standard procedures as described below. Satraplatin was purchased from MedChemExpress (Shanghai, PRC) and cisplatin from Qilu Pharm (Jinan, Shandong, PRC), respectively. 1 mM stock solutions of both drugs were established for storage at −20° C. as previously described (5).\n(§2) Determination of the half maximal inhibition concentration (IC50). Cells were harvested during the logarithmic growth period and cell numbers counted using Count-star (Inno-Alliance Biotech, USA). Cell density was adjusted to 4.44×10^4 cells/mL with the respective culture medium. […] The test plate was incubated for 72 h in the humidified incubator at 37° C. with 5% CO2, and then evaluated using CTG cell viability assay (Promega). […] Luminescence was recorded using EnVision Multi Label Reader (Perkin Elmer, Richmond, CA, USA).\n(§3) Data Analysis. The data were analyzed and visualized using GraphPad Prism 5.0 (GraphPad Software, San Diego, CA, USA) and Think-Cell 11 (Think-Cell Software, Berlin, Germany). […] The absolute IC50 was calculated according to the dose-response curve generated by GraphPad Prism 5.0. […]"}, "CTCL cell line HUT78": {"test_system": "CTCL cell line HUT78", "test": "CTG cell viability assay, HUT78", "assay_type": "cell-based, human", "experimental": "as §1, §2, §3"}, "OCI-LY3 cell line": {"test_system": "OCI-LY3 cell line", "test": "CTG cell viability assay, OCI-LY3", "assay_type": "cell-based, human", "experimental": "as §1, §2, §3"}, "[2]": {"test_system": "hormone refractory prostate cancer patients (HRPC)", "details": "monotherapy; cited from earlier work"}, "[3]": {"test_system": "lymphoma cell lines harboring gene copy number deletions in the 9p21 locus", "test": "Satraplatin sensitivity versus DNA copy number deletion", "assay_type": "cell-based, human", "details": "MTAP/CDKN2A/CDKN2B/DMRTA1 deletions", "experimental": "as §2, with “medium. Then, 90 μL cell suspensions were added in triplicate to a 96-well plate with the final cell density of 4×10^3 cells/well.” for “medium.”, “(Promega). For that purpose, plates were equilibrated at room temperature for approximately 30 min. Then, 50 μL CTG reagent was added to each well.” for “(Promega).”\n(§4) Data Analysis. The data were analyzed and visualized using GraphPad Prism 5.0 (GraphPad Software, San Diego, CA, USA) and Think-Cell 11 (Think-Cell Software, Berlin, Germany). […] The formula for calculating the cell survival rate was: Cell survival (%) at Cx=(Cx−M)/(N−M)×100%, Cx being the luminescence signal of cells cultured with any concentration of the test compound, M being the luminescence signal of the blank control (with no cells) and N being the vehicle control with culture medium containing 0.25% (v/v) dimethyl sulfoxide. […]"}, "[4]": {"test_system": "hematological malignancies (n=44) cell lines", "test": "CTG cell viability assay, hematological malignancy cell lines", "assay_type": "cell-based, human", "experimental": "as §1\nas §2, with “medium. Then, 90 μL cell suspensions were added in triplicate to a 96-well plate with the final cell density of 4×10^3 cells/well.” for “medium.”, “(Promega). For that purpose, plates were equilibrated at room temperature for approximately 30 min. Then, 50 μL CTG reagent was added to each well.” for “(Promega).”\nas §4, with “sulfoxide. The absolute IC50 was calculated according to the dose-response curve generated by GraphPad Prism 5.0.” for “sulfoxide.”"}, "DLBCL cell lines": {"test_system": "DLBCL cell lines", "test": "CTG cell viability assay, DLBCL cell lines", "assay_type": "cell-based, human", "details": "DLBCL and its respective cell lines", "experimental": "as §1, §2, §3"}, "[5]": {"details": "cited from earlier work"}, "66 cancer cell lines": {"test_system": "66 cancer cell lines", "test": "CTG cell viability assay, 66 cancer cell lines (AUC)", "assay_type": "cell-based, human", "details": "for activity (AUC) in hematological malignancies compared to solid organ cancers: ANOVA p-value=2.3e-08", "experimental": "as §1\nas §2, with “medium. Then, 90 μL cell suspensions were added in triplicate to a 96-well plate with the final cell density of 4×10^3 cells/well.” for “medium.”, “(Promega). For that purpose, plates were equilibrated at room temperature for approximately 30 min. Then, 50 μL CTG reagent was added to each well.” for “(Promega).”\nas §4, with “sulfoxide. The absolute IC50 was calculated according to the dose-response curve generated by GraphPad Prism 5.0.” for “sulfoxide.”"}, "OCI-LY7 cells": {"test_system": "OCI-LY7 cells", "test": "CTG cell viability assay, OCI-LY7", "assay_type": "cell-based, human", "experimental": "as §1, §2, §3"}},
  "data": [
    {"smiles": "CC(=O)[O][Pt]([NH2])([Cl])([Cl])([NH]C1CCCCC1)[O]C(C)=O", "note": "[satraplatin, bis (acetato) ammine dichloro (cyclohexylamine) platinum (IV)]", "values": [
      {"measurement": "effectiveness in contrast to oxaliplatin", "setting": "BCL2 expression", "result": "significantly more effective"},
      {"measurement": "reduction of BCL2 expression", "setting": "BCL2 expression; independently of P53 mutational status", "result": "up to 13 fold"},
      {"measurement": "activity in MTAP deleted hematopoietic cell lines", "setting": "[1]", "result": "high activity"},
      {"measurement": "IC50", "setting": "CTCL cell line HUT78", "result": "low-micromolar"},
      {"measurement": "cell killing", "setting": "OCI-LY3 cell line", "result": "killed very efficiently"},
      {"measurement": "activity compared with cisplatin", "setting": "OCI-LY3 cell line; p-value of 0.0006", "result": "significantly more active than cisplatin"},
      {"measurement": "objective response rate", "setting": "[2]", "result": "up to 31%"},
      {"measurement": "activity on cell lines with 9p21 copy number deletions", "setting": "[3]", "result": "more active"},
      {"measurement": "activity grouped by histology", "setting": "[4]; DLBCL, T-cell lymphoma, MCL, MM and Burkitt lymphoma cell lines", "result": "high activity"},
      {"measurement": "IC50 values", "setting": "[4]; group of hematologic malignancies, 72 h, CTG", "result": "low to sub micromolar levels"},
      {"measurement": "activity compared with standard cisplatin", "setting": "[4]; within the group of hematologic malignancies, p-value=0.009, FIG. 2", "result": "significantly more active"},
      {"measurement": "IC50 values", "setting": "DLBCL cell lines", "result": "low micromolar or even sub-molar"},
      {"measurement": "access to the cerebrospinal fluid", "setting": "[5]", "result": "access the cerebrospinal fluid at sufficient dose levels"},
      {"measurement": "activity (AUC) in hematological malignancies compared to solid organ cancers", "setting": "66 cancer cell lines", "result": "significant higher activity in haematopoietic & lymphoid malignancies"},
      {"measurement": "activity (AUC) in hematological malignancies compared to solid organ cancers", "setting": "66 cancer cell lines; listed as Satraplatin", "result": "significantly more active in hematological malignancies"},
      {"measurement": "median AUC value across all tested cell lines", "setting": "66 cancer cell lines; area under dose-response curve, 72 h, CTG, FIG. 1", "result": 2.35},
      {"measurement": "killing compared to cisplatin", "setting": "OCI-LY7 cells", "result": "significantly superior"}
    ]}
  ]
}
